US6783973B1, “Mammalian catecholamine receptor genes and uses” (Oregon Health & Science University, priority 2000, dated 2004)

Assays:
[1] = test system: human catecholamine receptor; assay: MAP kinase pathway stimulation, Elk-gal/luciferase reporter assay in HEK 293 cells transfected with H2-3pcDNA3.1; conditions: HEK 293 cells expressing FLAG/D2-tagged human catecholamine receptor; compared with cells incubated in the absence of the ligand
[2] = test system: HEK 293 cells transfected with pcDNA3.1 without catecholamine receptor sequences; assay: MAP kinase pathway stimulation, Elk-gal/luciferase reporter assay in control HEK 293 cells transfected with pcDNA3.1; conditions: control HEK 293 cells with empty vector pcDNA3.1; compared with cells incubated in the absence of the ligand

SMILES | fold stimulation of luciferase (MAP kinase activation), H2-3 pcDNA3.1 [1] | fold stimulation of luciferase (MAP kinase activation), pcDNA3.1 [2]
NC1CCc2cc(O)c(O)cc2C1 (centres unmarked) [ADTN67] | 1.93 fold | 0.78 fold
NCCc1c[nH]c2ccc(O)cc12 [Serotonin] | 1.22 fold | 1 fold
NC[C@H](O)c1ccc(O)c(O)c1 [Norepinephrine] | 1.69 fold | 1.3 fold
C=CCN1CCc2c(cc(O)c(O)c2Cl)C(c2ccccc2)C1 (centres unmarked) [SKF82958] | 2.52 fold | 0.79 fold
